Legend:
Format in all cases: cell-based
[1] = tested on: Human umbilical vein endothelial cells; test: VEGF/HGF-triggered vasculogenesis in 3-D fibrin gel, or growth in 2-D culture; details: 3-D culture, VEGF/HGF-stimulated, blebbistatin or nocodazole
Source text: (§1) At sites of tissue damage, inflammation or neoplasia, fibrinogen is converted into a 3-D meshwork of fibrin fibrils that serve as a structural support for endothelial cells undergoing neovascularization (Chun et al. 2006. Cell, 125: 577-591; Hiraoka et al. 1998. Cell, 95: 365-377; Schafer and Werner. 2008. Nat. Rev. Mol. Cell Biol., 9: 628-638; Zhou et al. 2008. Genes Dev., 22: 1231-1243). This process can be recapitulated in vitro by embedding serum-supplemented human endothelial cells within a 3-D fibrin gel in the presence of the pro-angiogenic factors, VEGF and HGF. Human umbilical vein endothelial cells were isolated from umbilical cords by perfusion of the umbilical vein with type 3 collagenase (Worthington, Lakewood, N.J.) and cultured in Medium-199 (Invitrogen, Carlsbad, Calif.) with 20% human serum and 50 μg/ml endothelial cell growth supplement (ECGS; BD Biosciences, Franklin Lakes, N.J.). For 3-D culture, endothelial cells were suspended in a solution of thrombin and aprotinin (Sigma, St. Louis, Mo.) and mixed 1:1 with a solution of 6 mg/ml fibrinogen (Calbiochem, Gibbstown, N.J.). Vasculogenesis was triggered by treatment with 100 ng/ml VEGF, 50 ng/ml HGF (Genentech, San Francisco, Calif.). Fibronectin fibrillogenesis was tracked in 3-D by co-culture with human fibronectin (Sigma) labeled with Alexa-594 (Invitrogen).
In the presence of VEGF and HGF, endothelial cells i) underwent marked changes in cell morphology from spherical to elongated, ii) mobilized proteinases which degrade the surrounding fibrin, iii) assembled a pericellular meshwork of fibronectin fibrils, and iv) initiated proliferative and tubulogenic responses that result in the formation of an anastomosing network of neovessels over a 6 day culture period (Hiraoka, supra; Saunders et al., 2006. J Cell Biol. 175: 179-191; Zhou et al., 2008. Proc. Natl. Acad. Sci. USA, 97: 4052-4057). […] Cell, 125: 757-767; Saunders et al., supra; Tomasini-Johansson et al., 2001. J. Biol. Chem., 276: 23430-23439; Zhou et al, supra). Endothelial cells cultured atop—rather than embedded within—fibrin gels (herein referred to as 2-D culture) display distinct growth requirements from those observed in 3-D culture.
Taken together, cytoskeletal reorganization and contractile tension may serve as the biomechanical effectors that transmit structural and mechanical cues from the pericellular ECM to the nuclear envelope. VEGF/HGF-stimulated endothelial cells were treated with either (a) blebbistatin to inhibit myosin ATPase function, or (b) nocodazole to prevent microtubule assembly under 3-D culture conditions (Salpingidou et al., 2007. J. Cell Biol., 178: 897-904; Zhou et al., supra).

[2] = tested on: Human umbilical vein endothelial cells; test: Nuclear architecture (GFP-lamin A, emerin) and nuclear pore complex (NUP153) distribution; details: 3-D culture, VEGF/HGF-stimulated, blebbistatin or nocodazole
Source text: as §1
As the 3-D-specific requirements for MT-MMPs and fibronectin matrix assembly correlate with changes in endothelial cell morphology, efforts were initiated to identify mechanistic routes whereby cell shape changes impact cell function. In particular, the impact of ECM remodeling on nuclear architecture was investigated. Nuclear architecture was tracked by either transfecting cells with a GFP-tagged form of the nuclear matrix filament, lamin A, or by immunostaining for the integral nuclear membrane protein, emerin (Dahl et al., 2008. Circ. Res., 102: 1307-1318; Glynn and Glover, 2005. Hum. Mol. Genet., 14: 2959-2969; Starr, 2009. J. Cell Sci., 122: 577-586; Stewart et al., 2007. Science, 318: 1408-1412). Under 2-D conditions, endothelial cell nuclei assumed an ellipsoid shape when cultured atop fibrin gels in the absence or presence of VEGF/HGF. In marked contrast, under 3-D conditions, endothelial cells cultured within fibrin gels in the absence of VEGF/HGF unexpectedly display a distorted morphology with multiple lamin A matrix and emerin infoldings and surface irregularities. Upon addition of VEGF/HGF, however, the nuclei of fibrin-embedded endothelial cells undergo a dramatic, and 3-D-specific, remodeling to assume a more classic, ovoid morphology. Three-dimensional reconstructions of DAPI-stained nuclei confirm that nuclear architecture transitions between multi-lobed and smooth elliptical shapes in the absence or presence, respectively, of VEGF/HGF.
Nuclear matrix architecture controls the distribution of the nuclear pore complexes that regulate the trafficking of protein and RNA across the nuclear envelope (Goldman et al., 2004. Proc. Natl. Acad. Sci. USA, 101: 8963-8968; Hawryluk-Gara et al., 2005. Mol. Biol. Cell, 16: 2382-2394; Liu et al., 2007. J. Cell. Biol., 178: 785-798). As such, the localization of nuclear pores was assessed in intact cells by monitoring the localization of the component protein, NUP153. In 3-D culture, unstimulated endothelial cells accumulate NUP153-containing pore complexes at nuclear membrane invaginations. In contrast, the nuclei of VEGF/HGF-stimulated endothelial cells display a uniform distribution of pore complexes in nuclear membranes.
To determine the roles of MMP-dependent proteolysis and fibronectin matrix assembly in mediating nuclear shape and nuclear pore complex changes, fibrin-embedded endothelial cells were stimulated with VEGF/HGF in the presence of FUD or GM6001. […]

[3] = tested on: Human umbilical vein endothelial cells; test: Chromatin organization (GFP-H2B, H3K9me3) and histone H3/H4 acetylation; details: 3-D culture, VEGF/HGF-stimulated, blebbistatin or nocodazole
Source text: as §1
Yet, multi-lobed nuclei and anomalous nuclear pore complex distributions can be observed in laminopathies, a pleiotropic series of genetic disorders wherein mutations in lamin or emerin impact chromatin organization, histone modifications, and transcriptional activity (Csoka et al., 2004. Aging Cell, 3: 235-243; Dechat et al., 2008. Genes Dev, 22: 832-853; Dillon, 2008. Dev Cell, 15: 182-186; Malhas et al., 2007. J. Cell Biol., 176: 593-603; Mendjan et al., 2006. Mol. Cell, 21: 811-823; Shumaker et al., 2006. Proc. Natl. Acad. Sci. USA, 103: 8703-8708; Tang et al., 2008. J. Cell Sci., 121: 1014-1024). To determine whether VEGF/HGF-dependent changes in nuclear shape similarly affect chromatin structure/function, chromatin packaging was tracked at the single-endothelial cell level by monitoring GFP-tagged histone H2B or pericentromeric constitutive heterochromatin localization. […] heterochromatin localization was visualized by immunostaining for trimethylated lysine 9 of histone H3 (H3K9me3) (Shumaker, supra; Tang, supra).
Histone acetylation can be regulated by chromatin positioning within the nucleus (Finlan et al., 2008. PLoS Genet, 4: e1000039; Somech et al., 2005. J. Cell Sci., 118: 4017-4025). Thus, the acetylation status of histones H3 and H4 was assessed as functional markers of changes in chromatin organization. […]

[4] = tested on: Human umbilical vein endothelial cells; test: Cytoskeletal organization (F-actin, β-tubulin, vimentin) and isometric tension/contractile force; details: 3-D culture, VEGF/HGF-stimulated, blebbistatin or nocodazole
[5] = tested on: human endothelial cells; test: Fn matrix assembly by endothelial cells in 3-D fibrin gel, confocal laser microscopy; details: growth factor cocktail, FUD or Del29 250 nM, L8 or 9D2 100 μg/ml, 70 kDa Fn fragment 75 μg/ml
Method: Endothelial cells were isolated from human umbilical cord veins by collagenase digestion and cultured in Medium 199 (Gibco) containing 20% human serum, 50 μg/ml endothelial cell growth supplement (BD Biosciences), 100 U/ml penicillin, and 100 μg/ml streptomycin (Hiraoka et al. 1998. Cell, 95(3): 365-377). For 2-D/3-D culture, endothelial cell monolayers (no later than third passage) were suspended by mild trypsinization and dispersed within or plated atop fibrin (3 mg/ml) or collagen (2.2 mg/ml) gels (prepared as described in Hiraoka, supra, and Hotary et al. 2003. Cell, 114(1): 33-45), and stimulated with a cocktail of growth factors including 100 ng/ml human vascular endothelial growth factor (Genentech), 50 ng/ml human hepatocyte growth factor (Genentech), 10 ng/ml human TGFα (Biosource), 0.5 ng/ml TGFβ1 (R and D Systems), and 100 μg/ml heparin (Sigma). In selected experiments, endothelial cell spheroids were prepared and suspended in 3-D fibrin gels.
The effect of Fn matrix assembly, or lack thereof, on endothelial cell function during neovascularization was assessed. Human serum was depleted of Fn by gelatin-sepharose affinity chromatography (Amersham) and supplemented with either 20 μg/ml of human plasma Fn (Sigma) or FITC-labeled Fn. […]
(Chernousov et al. 1991. J. Biol. Chem., 266(17): 10851-10858; Tomasini-Johansson et al. 2001. J. Biol. Chem., 276(26): 23430-23439; Mao and Schwarzbauer. 2005. Matrix Biol., 24(6): 389-399; and Tomasini-Johansson et al. 2006. Matrix Biol., 25(5): 282-293). […] Cell number in 3-D cultures was determined by hemacytometry after dissolving gels with 2 mg/ml bacterial collagenase (Worthington) while the number of patent tubules was determined in randomly selected cross-sections. Fn matrix assembly and cell morphology were monitored by confocal laser microscopy. To examine cell migration, endothelial cells were embedded in a 100 μl fibrin gel for 2 hours, then placed within a 500 μl gel for 8 days in the presence of Del29, FUD, control IgG, or L8, after which migration from the inner gel was assessed. […]

[6] = tested on: human endothelial cells; test: F-actin cytoskeletal organization, activated β1 integrin and vinculin distribution (phalloidin, confocal); details: 3-D fibrin gel, 2 days, FUD or Del29 peptide
Method: To further study the effects of Fn matrix inhibition, additional cytological processes associated with angiogenesis were examined. Endothelial cells were cultured within 3-D or 2-D fibrin gels in the presence of the FUD or Del 29 peptides for 2 days. F-actin cytoskeletal organization was monitored following staining with Alexa 488-conjugated phalloidin. Cells also were stained with an antibody against activated β1 integrin or transfected with a GFP-tagged vinculin expression vector (pRK-vinculin-EGFP) to study distribution. Following counterstaining with Alexa 594-labeled phalloidin, fluorescence was monitored by confocal laser microscopy.
In the absence of Fn fibrillogenesis, an impaired ability of embedded endothelial cells to generate myosin-dependent forces and increase cytoplasmic stiffness was predicted to affect both Fn unfolding, as well as the ability of the cells to properly register the mechanical properties of the surrounding substratum (Wu et al. 1995. Cell, 83(5): 715-724; Zhong et al. 1998. J. Cell Biol., 141(2): 539-551; Baneyx et al. 2002. Proc. Natl. Acad. Sci. USA, 99(8): 5139-5143; Discher et al. 2005. Science, 310(5751): 1139-1143; Engler, supra; and Yoneda, supra). As such, the rheologic and functional characteristics of endothelial cells were assessed in the presence of the specific myosin ATPase inhibitor, blebbistatin. […]

Compound	endothelial cell 3-D tubulogenesis [1]	nuclear shape and nuclear pore distribution [2]	chromatin distribution [3]	levels of acetylated histones H3 and H4 [3]	contractile force exerted on the 3-D ECM [4]	Fn matrix assembly (Fn polymerization) [5]	stress fiber formation (F-actin phalloidin staining) [6]
COC(=O)Nc1nc2ccc(C(=O)c3cccs3)cc2[nH]1 [nocodazole]	completely inhibit	multi-lobed nuclei with perturbations in nuclear pore distribution	chromatin condensations at the nuclear periphery with increased interchromatin space	decreased levels	impairing	–	–
Del29: control peptide wherein FUD residue 29 is deleted to abrogate Fn binding (KDQSPLAGESGETEYITEVYGNQQNPVDDKKLPNETGFSGNMVETEDT)	–	–	–	–	–	did not negatively impact	well-organized stress fibers
